Measurements reported in patent publication US9139529B2, “Substituted quinoxalines as sodium channel modulators” (VERTEX PHARMACEUTICALS INCORPORATED, priority 2013, dated 2015).

Target: human Nav1.8 (Homo sapiens (Human), UniProt Q9Y5Y9)
Assay: E-VIPR optical membrane potential assay with electrical stimulation
Type: cell-based
Conditions: HEK cells expressing human Nav1.8
From the text: Assays for Detecting and Measuring NaV Inhibition Properties of Compounds E-VIPR Optical Membrane Potential Assay Method with Electrical Stimulation
Sodium channels are voltage-dependent proteins that can be activated by inducing membrane voltage changes by applying electric fields. The electrical stimulation instrument and methods of use are described in Ion Channel Assay Methods PCT/US01/21652, herein incorporated by reference and are referred to as E-VIPR. The instrument comprises a microtiter plate handler, an optical system for exciting the coumarin dye while simultaneously recording the coumarin and oxonol emissions, a waveform generator, a current- or voltage-controlled amplifier, and a device for inserting electrodes in well. Under integrated computer control, this instrument passes user-programmed electrical stimulus protocols to cells within the wells of the microtiter plate.
24 hours before the assay on E-VIPR, HEK cells expressing human Nav1.8 were seeded in 384-well poly-lysine coated plates at 15,000-20,000 cells per well. HEK cells were grown in media (exact composition is specific to each cell type and NaV subtype) supplemented with 10% FBS (Fetal Bovine Serum, qualified; GibcoBRL #16140-071) and 1% Pen-Strep (Penicillin-Streptomycin; GibcoBRL #15140-122). Cells were grown in vented cap flasks, in 90% humidity and 5% CO2.
1) Pre-spotted compounds (in neat DMSO) into compound plates. Vehicle control (neat DMSO), the positive control (20 mM DMSO stock tetracaine, 125 μM final in assay) and test compounds were added to each well at 160× desired final concentration in neat DMSO. Final compound plate volume was 80 μL (80-fold intermediate dilution from 1 μL DMSO spot; 160-fold final dilution after transfer to cell plate). Final DMSO concentration for all wells in assay was 0.625%.
2) Prepared Hexyl Dye Solution.
3) Prepared cell plates. On the day of the assay, medium was aspirated and cells were washed three times with 100 μL of Bath1 Solution, maintaining 25 μL residual volume in each well.
4) Dispensed 25 μL per well of Hexyl Dye Solution into cell plates. Incubated for 20-35 minutes at room temp or ambient conditions.
5) Dispensed 80 μL per well of Bath1 into compound plates. Acid Yellow-17 (1 mM) was added and Potassium Chloride was altered from 4.5 to 20 mM depending on the NaV subtype and assay sensitivity.
6) Washed cell plates three times with 100 μL per well of Bath1, leaving 25 μL of residual volume. Then transferred 25 uL per well from Compound Plates to Cell Plates. Incubated for 20-35 minutes at room temp/ambient condition.
7) Read Plate on E-VIPR. Used the current-controlled amplifier to deliver stimulation wave pulses for 10 seconds and a scan rate of 200 Hz. A pre-stimulus recording was performed for 0.5 seconds to obtain the un-stimulated intensities baseline. The stimulatory waveform was followed by 0.5 seconds of post-stimulation recording to examine the relaxation to the resting state.
Data was analyzed and reported as normalized ratios of emission intensities measured in the 460 nm and 580 nm channels. The response as a function of time was reported as the ratios obtained using the following formula: […]
The data was further reduced by calculating the initial (Ri) and final (Rf) ratios. These were the average ratio values during part or all of the pre-stimulation period, and during sample points during the stimulation period. The response to the stimulus R=Rf/Ri was then calculated and reported as a function of time.
Control responses were obtained by performing assays in the presence of a compound with the desired properties (positive control), such as tetracaine, and in the absence of pharmacological agents (negative control). Responses to the negative (N) and positive (P) controls were calculated as above. The compound antagonist activity A is defined as:
[formula] where R is the ratio response of the test compound

Sequence of human Nav1.8 (Q9Y5Y9 whole entry): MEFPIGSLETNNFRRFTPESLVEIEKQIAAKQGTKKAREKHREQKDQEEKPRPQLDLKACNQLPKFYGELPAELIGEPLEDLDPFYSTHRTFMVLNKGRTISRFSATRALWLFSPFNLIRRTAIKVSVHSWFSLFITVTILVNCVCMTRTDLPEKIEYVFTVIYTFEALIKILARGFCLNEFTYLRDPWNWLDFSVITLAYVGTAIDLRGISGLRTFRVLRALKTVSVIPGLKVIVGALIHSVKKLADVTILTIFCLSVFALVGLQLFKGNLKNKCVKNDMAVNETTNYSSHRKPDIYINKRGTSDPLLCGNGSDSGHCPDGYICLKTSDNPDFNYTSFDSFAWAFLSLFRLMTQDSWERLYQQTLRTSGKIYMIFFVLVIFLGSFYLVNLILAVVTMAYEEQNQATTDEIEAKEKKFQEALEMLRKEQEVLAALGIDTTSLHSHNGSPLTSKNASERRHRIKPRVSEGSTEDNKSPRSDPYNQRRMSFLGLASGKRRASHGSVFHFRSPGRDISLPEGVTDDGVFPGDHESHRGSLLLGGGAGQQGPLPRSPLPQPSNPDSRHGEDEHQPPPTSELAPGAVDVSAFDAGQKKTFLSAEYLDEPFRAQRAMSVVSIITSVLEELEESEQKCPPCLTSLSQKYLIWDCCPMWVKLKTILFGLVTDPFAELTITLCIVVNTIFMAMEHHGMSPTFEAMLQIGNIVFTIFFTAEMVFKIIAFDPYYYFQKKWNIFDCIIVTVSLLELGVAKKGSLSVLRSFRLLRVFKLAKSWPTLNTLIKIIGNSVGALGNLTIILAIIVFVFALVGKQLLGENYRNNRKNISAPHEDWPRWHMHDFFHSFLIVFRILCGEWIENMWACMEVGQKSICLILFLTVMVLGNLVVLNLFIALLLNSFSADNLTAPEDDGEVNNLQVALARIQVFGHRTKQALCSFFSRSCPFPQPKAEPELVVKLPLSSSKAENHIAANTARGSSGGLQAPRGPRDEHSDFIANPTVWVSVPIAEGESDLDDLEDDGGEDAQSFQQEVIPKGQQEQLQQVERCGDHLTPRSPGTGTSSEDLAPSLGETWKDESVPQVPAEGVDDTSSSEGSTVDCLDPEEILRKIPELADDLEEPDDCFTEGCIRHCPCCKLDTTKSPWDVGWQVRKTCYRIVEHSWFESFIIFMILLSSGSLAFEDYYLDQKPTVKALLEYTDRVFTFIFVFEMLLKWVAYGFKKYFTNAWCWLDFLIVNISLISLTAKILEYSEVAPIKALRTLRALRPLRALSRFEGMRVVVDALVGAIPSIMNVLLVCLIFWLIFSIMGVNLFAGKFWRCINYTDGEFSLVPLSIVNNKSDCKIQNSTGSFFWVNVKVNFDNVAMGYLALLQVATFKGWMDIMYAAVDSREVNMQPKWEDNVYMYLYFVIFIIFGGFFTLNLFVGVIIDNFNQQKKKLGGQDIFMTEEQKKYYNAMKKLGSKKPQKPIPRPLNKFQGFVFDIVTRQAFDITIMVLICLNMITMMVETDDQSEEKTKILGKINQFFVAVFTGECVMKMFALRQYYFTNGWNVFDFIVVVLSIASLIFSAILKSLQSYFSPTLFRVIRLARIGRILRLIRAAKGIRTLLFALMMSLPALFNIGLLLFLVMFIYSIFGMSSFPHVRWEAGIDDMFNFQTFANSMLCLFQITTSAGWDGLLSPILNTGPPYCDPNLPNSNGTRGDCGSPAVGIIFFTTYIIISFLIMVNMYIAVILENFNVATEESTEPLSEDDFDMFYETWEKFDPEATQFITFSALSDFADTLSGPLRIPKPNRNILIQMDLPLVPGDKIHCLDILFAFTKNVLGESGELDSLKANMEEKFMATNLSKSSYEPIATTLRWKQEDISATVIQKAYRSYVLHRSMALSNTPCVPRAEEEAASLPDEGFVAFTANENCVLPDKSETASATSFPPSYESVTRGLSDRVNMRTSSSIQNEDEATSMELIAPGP

SMILES | IC50 [nM]
NS(=O)(=O)c1cccc(NC(=O)c2nc3ccccc3nc2Oc2ccc(F)cc2)c1 [Compound 1, 3-(4-fluorophenoxy)-N-(3-sulfamoylphenyl)quinoxaline-2-carboxamide] | 27
NS(=O)(=O)c1cccc(NC(=O)c2nc3ccccc3nc2Oc2ccc(OC(F)(F)F)cc2)c1 [Compound 3, N-(3-sulfamoylphenyl)-3-(4-(trifluoromethoxy)phenoxy)quinoxaline-2-carboxamide] | 14
COc1ccc(Oc2nc3ccccc3nc2C(=O)Nc2cccc(S(N)(=O)=O)c2)cc1F [Compound 7, 3-(3-fluoro-4-methoxyphenoxy)-N-(3-sulfamoylphenyl)quinoxaline-2-carboxamide] | 42
Cc1cc(Cl)ccc1Oc1nc2ccccc2nc1C(=O)Nc1cccc(S(N)(=O)=O)c1 [Compound 9, 3-(4-chloro-2-methylphenoxy)-N-(3-sulfamoylphenyl)quinoxaline-2-carboxamide] | 14
NS(=O)(=O)c1cccc(NC(=O)c2nc3ccccc3nc2Oc2ccccc2OC(F)F)c1 [Compound 10, 3-(2-(difluoromethoxy)phenoxy)-N-(3-sulfamoylphenyl)quinoxaline-2-carboxamide] | 36
COc1ccc(Oc2nc3ccccc3nc2C(=O)Nc2cccc(S(N)(=O)=O)c2)c(F)c1 [Compound 12, 3-(2-fluoro-4-methoxyphenoxy)-N-(3-sulfamoylphenyl)quinoxaline-2-carboxamide] | 22
NS(=O)(=O)c1cccc(NC(=O)c2nc3ccccc3nc2Oc2ccccc2)c1 [Compound 13, 3-phenoxy-N-(3-sulfamoylphenyl)quinoxaline-2-carboxamide] | 92
NS(=O)(=O)c1cccc(NC(=O)c2nc3ccccc3nc2Oc2ccc(OCC(F)(F)F)cc2)c1 [Compound 15, N-(3-sulfamoylphenyl)-3-(4-(2,2,2-trifluoroethoxy)phenoxy)quinoxaline-2-carboxamide] | 66
CNS(=O)(=O)c1cccc(NC(=O)c2nc3ccccc3nc2Oc2ccc(F)cc2OC)c1 [Compound 16, 3-(4-fluoro-2-methoxyphenoxy)-N-(3-(N-methylsulfamoyl)phenyl)quinoxaline-2-carboxamide] | 22
O=C(O)c1ccc(NC(=O)c2nc3ccccc3nc2Oc2ccc(OC(F)(F)F)cc2)cc1 [Compound 17, 4-(3-(4-(trifluoromethoxy)phenoxy)quinoxaline-2-carboxamido)benzoic acid] | 44

Compounds with a lower IC50, results first:

IC50 [nM] | SMILES
13 | NS(=O)(=O)c1cccc(NC(=O)c2nc3ccccc3nc2Oc2ccc(F)cc2F)c1 [Compound 5, 3-(2,4-difluorophenoxy)-N-(3-sulfamoylphenyl)quinoxaline-2-carboxamide]
7 | Cc1cc(F)ccc1Oc1nc2ccccc2nc1C(=O)Nc1cccc(S(N)(=O)=O)c1 [Compound 14, 3-(4-fluoro-2-methylphenoxy)-N-(3-sulfamoylphenyl)quinoxaline-2-carboxamide]
6 | COc1cc(F)ccc1Oc1nc2ccccc2nc1C(=O)Nc1cccc(S(N)(=O)=O)c1 [Compound 2, 3-(4-fluoro-2-methoxyphenoxy)-N-(3-sulfamoylphenyl)quinoxaline-2-carboxamide]
6 | COc1ccc(Oc2nc3ccccc3nc2C(=O)Nc2cccc(S(N)(=O)=O)c2)c(OC)c1 [Compound 8, 3-(2,4-dimethoxyphenoxy)-N-(3-sulfamoylphenyl)quinoxaline-2-carboxamide]
5 | COc1cc(Cl)ccc1Oc1nc2ccccc2nc1C(=O)Nc1cccc(S(N)(=O)=O)c1 [Compound 11, 3-(4-chloro-2-methoxyphenoxy)-N-(3-sulfamoylphenyl)quinoxaline-2-carboxamide]
4 | COc1ccc(Oc2nc3ccccc3nc2C(=O)Nc2cccc(S(N)(=O)=O)c2)c(Cl)c1 [Compound 4, 3-(2-chloro-4-methoxyphenoxy)-N-(3-sulfamoylphenyl)quinoxaline-2-carboxamide]
3 | NS(=O)(=O)c1cccc(NC(=O)c2nc3ccccc3nc2Oc2ccc(F)cc2Cl)c1 [Compound 6, 3-(2-chloro-4-fluorophenoxy)-N-(3-sulfamoylphenyl)quinoxaline-2-carboxamide]
